Laboratory results from patent US8541407B2 (ArQule, Inc., priority 2010, dated 2013).

Biological target: AKT1 (Homo sapiens (Human), UniProt P31749)
Assay: Inactive Akt HTRF Assay (AKT1)
Settings: *labeled: Akt HTFR assay; read-out: AKT1 biochemical assay, IC50
Procedure: AKT1 activity was assayed using CisBio KinEASE™ HTRF Assay technology. This technology utilizes a proprietary biotinylated peptide substrate (STKS3), streptavidin labeled XL665 antibody, and STK antibody-Eu^3+-cryptate. AKT1 activation was achieved by the addition of the activating kinases PDK1 and MAPKAPK2, lipid vesicles, and ATP. The extent of STKS3 biotinylated peptide phosphorylation was determined using a phospho-STK antibody-Eu^3+-cryptate and streptavidin labeled XL665 antibody. XL665 was stimulated by Eu^3+-cryptate resulting in a TR-FRET signal proportional to the STKS3 phosphorylation level.
Representative compounds of the invention and controls ((S)-1-((5-(3-methyl-1H-indazol-5-yl)pyridin-3-yl)oxy)-3-phenylpropan-2-amine, 1-(1-(4-(7-phenyl-1H-imidazo[4,5-g]quinoxalin-6-yl)benzyl)piperidin-4-yl)-1H-benzo[d]imidazol-2(3H)-one, and 8-(4-(1-aminocyclobutyl)phenyl)-9-phenyl-[1,2,4]triazolo[3,4-f][1,6]naphthyridin-3(2H)-one) were prepared in 10% DMSO at 10-fold the desired final concentration, and added to each well of a reaction plate (Corning 96-well half-area solid black nonbinding surface plate) in a volume of 2.5 μL. […] After a 20 minute pre-incubation at room temperature, the kinase reaction was initiated by the addition of 5 μL of an activation mixture diluted in assay buffer containing biotinylated STKS3, PDK1, MAPKAPK2, DOPS/DOPC, PtdIns(3,4,5)P3, and ATP for final concentrations of 150 nM biotinylated STKS3, 1 nM (AKT1), 2.5 nM (AKT2), or 0.4 nM (AKT3) PDK1, 0.8 nM (AKT1), 2 nM (AKT2), or 0.3 nM (AKT3) MK2, 5.5 μM DOPS, 5.5 μM DOPC, 0.5 μM PtdIns(3,4,5)P3, and 50 μM ATP. The plates were incubated for 30 minutes at room temperature, and then stopped by the addition of 25 μL HTRF Detection Buffer containing phospho-STK antibody-Eu^3+-cryptate and streptavidin labeled XL665 antibody, at dilutions of 1:192 and 1:500 respectively. Final assay dilutions of phospho-STK antibody-Eu^3+-cryptate and streptavidin labeled XL665 antibody were 1:384 and 1:1,000 respectively. Assay plates were incubated for 60 minutes at room temperature, and the plates were read on a Perkin Elmer Envision Multilabel plate reader (excitation: 320 nm, emission I: 665 nm, emission II: 615 nm).

Chain of AKT1 (P31749 whole entry): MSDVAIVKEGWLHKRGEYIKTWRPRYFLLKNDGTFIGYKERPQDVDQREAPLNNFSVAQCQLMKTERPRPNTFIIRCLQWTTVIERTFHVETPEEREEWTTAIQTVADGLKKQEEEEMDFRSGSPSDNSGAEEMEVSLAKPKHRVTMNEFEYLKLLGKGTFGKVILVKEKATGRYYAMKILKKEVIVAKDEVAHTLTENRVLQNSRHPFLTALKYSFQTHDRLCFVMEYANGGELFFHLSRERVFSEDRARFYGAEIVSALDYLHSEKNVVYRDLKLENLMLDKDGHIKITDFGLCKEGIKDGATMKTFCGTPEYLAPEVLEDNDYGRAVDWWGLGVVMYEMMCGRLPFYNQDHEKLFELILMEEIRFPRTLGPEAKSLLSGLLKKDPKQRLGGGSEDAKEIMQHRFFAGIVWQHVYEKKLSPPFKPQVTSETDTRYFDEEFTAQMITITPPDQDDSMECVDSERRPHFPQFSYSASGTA

IC50 [µM] | Compound
70 | NC1CCN(C(=O)c2ccc(-c3nnc4n3-c3cccnc3Nc3ccccc3-4)cc2)CC1 [Example 211, (4-(9H-benzo[f]pyrido[2,3-b][1,2,4]triazolo[4,3-d][1,4]diazepin-3-yl)phenyl)(4-aminopiperidin-1-yl)methanone]
56 | CC(C)(C)OC(=O)NC1CCN(C(=O)c2ccc(-c3nnc4n3-c3cccnc3Nc3ccccc3-4)cc2)CC1 [Example 210, tert-butyl (1-(4-(9H-benzo[f]pyrido[2,3-b][1,2,4]triazolo[4,3-d][1,4]diazepin-3-yl)benzoyl)piperidin-4-yl)carbamate]
14 | NCCc1ccc(-c2nnc3n2-c2cccnc2Nc2ccccc2-3)cc1 [Example 214, 2-(4-(9H-benzo[f]pyrido[2,3-b][1,2,4]triazolo[4,3-d][1,4]diazepin-3-yl)phenyl)ethanamine]
14 | CC(C)(C)OC(=O)NCc1ccc(-c2nnc3n2-c2cccnc2Nc2ccccc2-3)cc1 [Example 213, tert-butyl 4-(9H-benzo[f]pyrido[2,3-b][1,2,4]triazolo[4,3-d][1,4]diazepin-3-yl)benzylcarbamate]
